The text below walks through data of EPA's ToxValDB 9.5.

Each structure is given as a SMILES string.

The subject of series [1] is Monkey. To be noted: chronic, oral.
The subject of series [2] is Monkey. To be noted: chronic, oral. The source holds these as a separate data set.
Another series has as its system Phasianus colchicus. The settings on record: oral.
The next series has as its system Peromyscus polionotus. To be noted: oral.
For another series, the system named is Neovison sp. To be noted: repeat dose other; oral; Mink.
The subject of series [3] is Rattus norvegicus. The settings on record: developmental, oral, M, generation: F1.
Series [4] concerns Rattus norvegicus. To be noted: oral, M/F.
For series [5], the system named is Rattus norvegicus. The settings on record: oral; for NOEL: subchronic, diet, Fischer 344, Body Weight Changes: decrease + Food Consumption: decrease + Hematology: Hct decrease, Hgb decrease, RBC decrease, N-RBC increase, MCV ….
Series [6] relates to Rattus norvegicus. The settings on record: chronic, oral.
The subject of series [7] is Rattus norvegicus. The settings on record: Hershberger, oral, gavage, Sprague-Dawley, active + Antiandrogenic + anti-androgenic + PPS delayed.
The test system of series [8] is Rattus norvegicus.
The next series relates to Chalcophaps sp. The settings on record: oral.
Series [9] relates to Mus musculus. To be noted: repeat dose other; oral.
Series [10] deals with Mus musculus. The settings on record: chronic; duration: 25 months; oral; diet; M/F; Swiss; Histopathology in lungs.
The subject of series [11] is Monkey. To be noted: chronic; duration: 26 weeks; inhalation; M; Cynomolgus; respiratory.
For series [12], the system named is Homo sapiens. The settings on record: clinical; duration: 2 hours; inhalation; M/F; respiratory.
Series [13] concerns Canidae. The settings on record: repeat dose other; oral; Dog Other.
Series [14] deals with Homo sapiens. To be noted: clinical, oral.
In a further series the test system is Coturnix japonica. The settings on record: repeat dose other; oral.
For series [15], the system named is Rattus norvegicus. The settings on record: repeat dose other; oral.
Series [16] relates to Canidae. The settings on record: subchronic; duration: 13 weeks; oral; capsule; M/F; Beagle; neurological.
Series [17] deals with Rattus norvegicus. The series is described as follows: FEL; higher = less toxic. The settings on record: short-term; duration: 10 days; inhalation; M/F; inflammation of the nasal passage.
[18] abbreviates: gavage, Crl:CD(SD), F1: AGD (mm).
The mark [19] stands for this setting: chronic, duration: 2 years, oral, M/F, reduced weight gain, histopathology: rats.
Where [20] appears, read: duration: 6 months, diet, M/F, increased thyroid weight.

`Clc1cccc(-c2ccc(Cl)c(Cl)c2Cl)c1Cl` [Aroclor 1254]: the LOAEL with Monkey [1] (duration: 5 years, capsule, Immune system: Toxicity) was 0.005 mg/kg-day; with Monkey [2] (F, decreased antibody (IgG and IgM) response to sheep erythrocytes + Ocular exudate, inflamed and prominent Meibomian glands, distorted growth …) it was 0.005 mg/kg-day; in the series on Phasianus colchicus, 1.8 mg/kg-day; in the series with Peromyscus polionotus, 0.68 mg/kg-day; with Neovison sp., 0.69 mg/kg-day. The no-observed-adverse-effect level (NOAEL) is 0.18 mg/kg-day with Phasianus colchicus, 0.068 mg/kg-day with Peromyscus polionotus and 0.14 mg/kg-day with Neovison sp..

Take `CCCCOC(=O)c1ccccc1C(=O)OCCCC` [Dibutyl 1,2-benzenedicarboxylate]: the NOEL with Rattus norvegicus [3] (Albino, F1: AGD (units not specified)) is 50 mg/kg-day; in the series on Rattus norvegicus [3] (setting [18]), 100 mg/kg-day; in the series on Rattus norvegicus [5] (F), 177 mg/kg-day; with Rattus norvegicus [5] (M/F), below 240 mg/kg-day; in the series with Rattus norvegicus [7] (duration: 5 days) it was 500 mg/kg-day; with Rattus norvegicus [7] (duration: 10 days), 500 mg/kg-day. The same compound registered an LOEL with Rattus norvegicus [3] (setting [18]) of 500 mg/kg-day. Also, the no observed adverse effect level (NOAEL) worked out at 50 mg/kg-day in the series with Rattus norvegicus [4] (developmental, duration: 9 days, gavage, Sprague-Dawley, developmental); 125 mg/kg-day in the series on Rattus norvegicus [6] (duration: 52 weeks, diet, Whole body: Increased mortality); 125 mg/kg-day with Rattus norvegicus [8] (subchronic, oral, M, mortality); 0.11 mg/kg-day with Chalcophaps sp.; 550 mg/kg-day with Mus musculus [9]. For the same compound, the LOAEL turned out to be 600 mg/kg-day in the series on Rattus norvegicus [8] (subchronic, oral, M, mortality); 1.1 mg/kg-day in the series with Chalcophaps sp.; 1830 mg/kg-day in the series on Mus musculus [9].

With `N#CC(c1ccc(Cl)cc1)c1c(Cl)cc(-n2ncc(=O)[nH]c2=O)cc1Cl` (configuration not stated) [Diclazuril], in the series with Mus musculus [10], the LOEL worked out at 11 mg/kg-day and the NOEL came out at 3 mg/kg-day.

Consider `C=O` [Formaldehyde], for which the NOAEL in the series with Rattus norvegicus [4] (chronic, duration: 2 years, Wistar, gastrointestinal) stood at 15 mg/kg-day; in the series with Rattus norvegicus [4] (short-term, duration: 4 weeks, drinking water, Wistar, gastrointestinal), 25 mg/kg-day; in the series on Monkey [11], 1.2 mg/m3; in the series on Rattus norvegicus [5] (short-term, duration: 28 days, drinking water, M/F, Wistar, Clinical Observation: Yellowish discoloration of fur + Food Consumption: decrease + Water Consumption: decrease + Blood Chemistry: TP …), 25 mg/kg-day; in the series on Rattus norvegicus [6] (duration: 2 years, drinking water, Gastrointestinal tract: Lesions), 15 mg/kg-day; with Rattus norvegicus [8] (setting [19]), 15 mg/kg-day. For the same compound, in the series with Canidae [13], the no-observed-adverse-effect level (NOAEL) was determined as 9.4 mg/kg-day. Besides, the figures for the LOAEL in the series with Homo sapiens [12] and in the series with Rattus norvegicus [8] (setting [19]) were 0.491 mg/m3 and 82 mg/kg-day, respectively.

Turning to `CC1(C)[C@@H](O[C@H]2O[C@H](C(=O)O)[C@@H](O)[C@H](O)[C@H]2O[C@@H]2O[C@H](C(=O)O)[C@@H](O)[C@H](O)[C@H]2O)CC[C@]2(C)[C@H]3C(=O)C=C4[C@@H]5C[C@@](C)(C(=O)O)CC[C@]5(C)CC[C@@]4(C)[C@]3(C)CC[C@@H]12` [Glycyrrhizin], the NOAEL in the series on Homo sapiens [14] (duration: 8 weeks, capsule, F, Inhibition of the type-2 11b-hsd, with a consequent increase in concentrations of cortisol) was 2 mg/kg-day.

Take `CC(=O)[O-].CC(=O)[O-].[Pb+2]` [Lead acetate]: in the series on Coturnix japonica, the LOAEL was 11.3 mg/kg-day and the no observed adverse effect level (NOAEL) was 1.13 mg/kg-day. In the series on Rattus norvegicus [15], this compound came in with an LOAEL of 80 mg/kg-day and an NOAEL of 8 mg/kg-day.

Compound `S=C([S-])NCCNC(=S)[S-].[Mn+2]` [Maneb] came in with an NOEL with Monkey [1] (duration: 6 months, diet, Thyroid: Increased weight) of 5 mg/kg-day. Further, in the series on Monkey [2] (setting [20]), the LEL stood at 15 mg/kg-day and the NOEL amounted to 5 mg/kg-day.

Take `CN(C)[C@@H]1C(=O)C(C(N)=O)=C(O)[C@@]2(O)C(=O)C3=C(O)c4c(O)cccc4[C@@](C)(O)[C@H]3[C@H](O)[C@@H]12` [Oxytetracycline]: in the series with Homo sapiens [14] (Selection of resistant enterobacteriaceae), the NOEL was 0.033 mg/kg-day.

On to `C=C1C(CCl)(CCl)C2(Cl)C(Cl)C(Cl)C1(Cl)C2(Cl)Cl` (configuration not stated) [Toxaphene], for which the results for the NOAEL with Canidae [16] and in the series on Rattus norvegicus [15] were 5 mg/kg-day and 8 mg/kg-day, respectively.

In the series with Rattus norvegicus [8] (chronic, duration: 28 weeks, inhalation, M/F, no effects), `CCN(CC)CC` [Triethylamine] returned an NOAEL of 1020 mg/m3. The compound also returned an FEL in the series on Rattus norvegicus [17] of 4140 mg/m3.

By LOAEL is commonly meant the lowest tested level that showed an adverse finding. By NOAEL is commonly meant the highest tested level that showed no adverse finding.
